Results: patent publication US12503687B2, “Therapeutic bacteriophage compositions” (priority 2017, dated 2025)
Where “and” joins values, the source holds several entries; their conditions need not be identical. Equal entries are not always repeated.

Tested on: Staphylococcus aureus strain UNT144-3
Assay: S. aureus pneumonia model (neutropenic murine lung infection)
Assay type: in vivo, mice
Conditions: 100 mg/kg SC at 2 and 6 hrs post-infection; CFU assessed 24 hr
Experimental: The sensitivity of two S. aureus clinical isolates, UNT109-3 (NRS234, native valve endocarditis) and UNT144-3, that have been previously utilized in animal models of infection, was evaluated vs. the individual phage and the 4-phage panel. […] The virulence of the two strains was then evaluated in the murine lung infection model. Female Hsd:ICR(CD-1) mice (Harlan Laboratories, Houston, TX) were administered 150 and 100 mg/kg cyclophosphamide on day −4 and day −1 prior to infection to render them neutropenic. Groups of 5 mice were then anaesthetized by intraperitoneal (IP) injection of 0.15 mL of a mixture of ketamine HCl (100 mg/kg body weight) plus xylazine (10 mg/kg body weight). Once anaesthetized, mice were infected intranasally by placing drops on the external nares and allowing inhalation of the 50 μl inoculum. Twenty-four hours after infection, mice were euthanized by CO2 inhalation and lungs processed for bacterial titers. Bacterial counts were enumerated on Brain Heart Infusion agar (Difco™ Laboratories)+0.5% activated charcoal (Sigma-Aldrich) plates for ease of recovering and detecting S. aureus (Barr, J. G., et al., J. Clin. Pathol. (1987) 40:372-376). […]
Three phage panel treatment groups were evaluated for efficacy: 2×10^10 PFU/mL per phage, 2×10^9 PFU/mL per phage, and 2×10^8 PFU/mL per phage. […]

CN[C@H](CC(C)C)C(=O)N[C@H]1C(=O)N[C@@H](CC(N)=O)C(=O)N[C@H]2C(=O)N[C@H]3C(=O)N[C@H](C(=O)N[C@H](C(=O)O)c4cc(O)cc(O)c4-c4cc3ccc4O)[C@H](O)c3ccc(c(Cl)c3)Oc3cc2cc(c3O[C@@H]2O[C@H](CO)[C@@H](O)[C@H](O)[C@H]2O[C@H]2C[C@](C)(N)[C@H](O)[C@H](C)O2)Oc2ccc(cc2Cl)[C@H]1O [Vancomycin]
Mean ± SD log10 CFU/Lung Pair: 5.55 log10 CFU/Lung Pair and 5.55 ± 1.1 log10 CFU/Lung Pair
